Experimental data from ChEMBL document CHEMBL1201862, “PubChem BioAssay data set” (2004).
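Protocol summary: plate cells (96-well), add compound at 5 concentrations, incubate 48 h, interpolate endpoints linearly. Abbreviation: GI50, concentration required for 50% inhibition of growth.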 Calls of active or inactive are those of the source. Cut-off read from the data, not from the text of the source: active = GI50 up to about 1.1 µM and inactive = higher.

Columns and labels:
Assay in all cases: inhibition of tumour cell growth, NCI panel, 48 h
[1] = system: MCF7
[2] = system: DU-145
[3] = system: MDA-MB-435
[4] = system: SK-MEL-2
[5] = system: 786-0
[6] = system: RPMI-8226
[7] = system: MOLT-4
[8] = system: OVCAR-3
[9] = system: SK-MEL-28
[10] = system: NCI-H226
[11] = system: ACHN
[12] = system: HL-60
[13] = system: PC-3
[14] = system: HOP-62
[15] = system: SW-620
[16] = system: HCC 2998
[17] = system: SN12C
[18] = system: HCT-15
[19] = system: OVCAR-8
[20] = system: Hs-578T

Structure (SMILES) | GI50 [1] | GI50 [2] | GI50 [3] | GI50 [4] | GI50 [5] | GI50 [6] | GI50 [7] | GI50 [8] | GI50 [9] | GI50 [10] | GI50 [11] | GI50 [12] | GI50 [13] | GI50 [14] | GI50 [15] | GI50 [16] | GI50 [17] | GI50 [18] [µM] | GI50 [19] | GI50 [20]
Nn1c(S)nnc1CCCCCCCCc1nnc(S)n1N | > 100 µM (inactive) | > 100 µM (inactive) | > 100 µM (inactive) | > 100 µM (inactive) | > 100 µM (inactive) | > 100 µM (inactive) | > 100 µM (inactive) | > 100 µM (inactive) | > 100 µM (inactive) | > 100 µM (inactive) | > 100 µM (inactive) | > 100 µM (inactive) | > 100 µM (inactive) | > 100 µM (inactive) | > 100 µM (inactive) | > 100 µM (inactive) | > 100 µM (inactive) | > 100 | > 100 µM (inactive) | –
N#CCCN(CCC#N)c1ccc(C(Sc2ccccc2)C(NC(=O)c2cc([N+](=O)[O-])ccc2Cl)C(=O)Sc2ccccc2)cc1 (stereo not given) | – | – | – | 2.3 µM (inactive) | 1.89 µM (inactive) | 1.77 µM (inactive) | 0.385 µM (active) | 2.56 µM (inactive) | 1.96 µM (inactive) | 2.02 µM (inactive) | 3.71 µM (inactive) | 1.4 µM (inactive) | – | 3.24 µM (inactive) | 2.19 µM (inactive) | 6.65 µM (inactive) | 1.88 µM (inactive) | 3.45 | 1.96 µM (inactive) | –
COc1c(C)c2c(c3c1c(=O)c1ccccc1n3C)C=CC(C)(C)O2 | – | – | – | 25 µM (inactive) | 23.4 µM (inactive) | 9.02 µM (inactive) | 19.5 µM (inactive) | 19.6 µM (inactive) | 22 µM (inactive) | 36.7 µM (inactive) | 20.6 µM (inactive) | 9.73 µM (inactive) | – | 27.2 µM (inactive) | 38 µM (inactive) | 28.4 µM (inactive) | 30.2 µM (inactive) | 18.2 | 25.6 µM (inactive) | –
CC1(c2cccc3c2C2(O)C=CC4(CCC32)OCCO4)OCCO1 (stereo not given) | – | – | – | > 100 µM (inactive) | > 100 µM (inactive) | > 100 µM (inactive) | > 100 µM (inactive) | > 100 µM (inactive) | > 100 µM (inactive) | > 100 µM (inactive) | > 100 µM (inactive) | > 100 µM (inactive) | – | > 100 µM (inactive) | > 100 µM (inactive) | > 100 µM (inactive) | > 100 µM (inactive) | > 100 | > 100 µM (inactive) | –
COc1ccc2c(c1)CC1c3c(ccc(OC)c3O)CC2N1C (stereo not given) | – | – | – | 19.2 µM (inactive) | 29.1 µM (inactive) | 20.9 µM (inactive) | 23 µM (inactive) | 29.2 µM (inactive) | 21 µM (inactive) | 86.1 µM (inactive) | 51.5 µM (inactive) | 16.2 µM (inactive) | – | > 92.3 µM (inactive) | 21.5 µM (inactive) | 16.8 µM (inactive) | 43 µM (inactive) | 34.4 | 34.2 µM (inactive) | –
O=C(O)CCC(=O)OCN1C(=O)C2C3C=CC(C2C1=O)C1C2C(=O)N(COC(=O)CCC(=O)O)C(=O)C2C31 (stereo not given) | – | – | – | > 100 µM (inactive) | > 62.7 µM (inactive) | 21.4 µM (inactive) | > 90.4 µM (inactive) | > 100 µM (inactive) | > 100 µM (inactive) | > 100 µM (inactive) | > 67 µM (inactive) | 23.4 µM (inactive) | – | > 100 µM (inactive) | 38.4 µM (inactive) | > 100 µM (inactive) | > 86.5 µM (inactive) | 32.4 | 56.9 µM (inactive) | –
N#C[C@](CO)(NC(=O)OCc1ccccc1)C(F)F | – | > 100 µM (inactive) | > 100 µM (inactive) | > 100 µM (inactive) | > 100 µM (inactive) | > 100 µM (inactive) | > 100 µM (inactive) | > 100 µM (inactive) | > 100 µM (inactive) | > 100 µM (inactive) | > 100 µM (inactive) | > 100 µM (inactive) | > 100 µM (inactive) | > 100 µM (inactive) | > 100 µM (inactive) | > 100 µM (inactive) | – | > 100 | > 100 µM (inactive) | > 100 µM (inactive)
Cc1cccc(Cl)c1NCC(O)CN1CCN(C)CC1 (stereo not given) | – | > 100 µM (inactive) | > 100 µM (inactive) | > 100 µM (inactive) | > 100 µM (inactive) | – | > 100 µM (inactive) | > 100 µM (inactive) | > 100 µM (inactive) | > 100 µM (inactive) | > 100 µM (inactive) | – | > 100 µM (inactive) | > 100 µM (inactive) | > 100 µM (inactive) | > 100 µM (inactive) | > 100 µM (inactive) | > 100 | > 100 µM (inactive) | > 100 µM (inactive)
N#Cc1ccccc1NC(=O)/C(=N\N)C(C(=O)c1ccncc1)C1OC(=O)c2ccccc21 (stereo not given) | – | – | – | > 100 µM (inactive) | > 100 µM (inactive) | > 100 µM (inactive) | > 100 µM (inactive) | > 100 µM (inactive) | > 100 µM (inactive) | > 100 µM (inactive) | > 100 µM (inactive) | > 100 µM (inactive) | – | > 100 µM (inactive) | > 100 µM (inactive) | > 100 µM (inactive) | > 100 µM (inactive) | > 100 | > 100 µM (inactive) | –
CCOC(=O)C1=C(C)C2C3C(=O)NC(=O)C3C1(C)C1C(=O)NC(=O)C21 (stereo not given) | – | – | – | > 100 µM (inactive) | > 100 µM (inactive) | > 100 µM (inactive) | > 100 µM (inactive) | 59.7 µM (inactive) | > 100 µM (inactive) | < 0.01 µM (active) | > 100 µM (inactive) | > 100 µM (inactive) | – | > 100 µM (inactive) | > 100 µM (inactive) | > 100 µM (inactive) | > 100 µM (inactive) | > 100 | > 100 µM (inactive) | –
O=C(NC(CS)C(=O)O)c1c2ccccc2nc2ccccc12 (stereo not given) | 49.3 µM (inactive) | 30.7 µM (inactive) | 2.81 µM (inactive) | 47.8 µM (inactive) | > 100 µM (inactive) | 54.1 µM (inactive) | 22.2 µM (inactive) | > 100 µM (inactive) | 74.1 µM (inactive) | < 0.01 µM (active) | 21.3 µM (inactive) | 0.16 µM (active) | 23.9 µM (inactive) | 38.7 µM (inactive) | 34 µM (inactive) | 83.9 µM (inactive) | > 100 µM (inactive) | 12.8 | 49.1 µM (inactive) | –
CCC(/C(=N\Nc1c(Cl)cc(Cl)cc1Cl)c1ccccc1)n1ccnc1C (stereo not given) | – | – | – | 13.3 µM (inactive) | 11.7 µM (inactive) | 3.99 µM (inactive) | 5.41 µM (inactive) | 5.82 µM (inactive) | 14.7 µM (inactive) | 15.2 µM (inactive) | 5.52 µM (inactive) | 3.82 µM (inactive) | – | – | 15.2 µM (inactive) | 3.66 µM (inactive) | 11.9 µM (inactive) | 10.5 | 12.9 µM (inactive) | –
N#Cc1c(-c2ccc(Cl)cc2)c(C#N)c(=O)n(NS(=O)(=O)c2ccccc2)c1-c1ccccc1 | 19.8 µM (inactive) | – | > 25 µM (inactive) | > 25 µM (inactive) | > 25 µM (inactive) | 17.2 µM (inactive) | > 25 µM (inactive) | – | > 25 µM (inactive) | – | > 25 µM (inactive) | > 25 µM (inactive) | > 25 µM (inactive) | > 25 µM (inactive) | > 25 µM (inactive) | > 25 µM (inactive) | > 25 µM (inactive) | > 25 | – | –
Cc1cn(C2CC(OP(=O)(O)OCC3OC(n4c[n+]([BH2-]C#N)c5c(=O)[nH]c(N)nc54)CC3O)C(CO)O2)c(=O)[nH]c1=O (stereo not given) | > 100 µM (inactive) | > 100 µM (inactive) | – | > 100 µM (inactive) | > 100 µM (inactive) | > 100 µM (inactive) | > 100 µM (inactive) | > 100 µM (inactive) | – | > 100 µM (inactive) | > 100 µM (inactive) | > 100 µM (inactive) | > 100 µM (inactive) | > 100 µM (inactive) | – | > 100 µM (inactive) | > 100 µM (inactive) | > 100 | > 100 µM (inactive) | –
O=S(=O)(Cc1ccccc1)c1nnc(S(=O)(=O)c2ccc(Cl)cc2)s1 | 48 µM (inactive) | 17 µM (inactive) | 27.1 µM (inactive) | 22.8 µM (inactive) | 23.6 µM (inactive) | 15.9 µM (inactive) | 3.39 µM (inactive) | 20.5 µM (inactive) | 19.9 µM (inactive) | – | 19.4 µM (inactive) | – | 21.8 µM (inactive) | 21.4 µM (inactive) | 23.9 µM (inactive) | – | 20.2 µM (inactive) | 20.9 | 19 µM (inactive) | 18.1 µM (inactive)
CC(=O)/C=C/CCC(=O)/C=C/C(=O)OC(CCC(=O)/C=C/C(=O)O)CC(C)=O (stereo not given) | 93.1 µM (inactive) | > 100 µM (inactive) | > 100 µM (inactive) | – | > 100 µM (inactive) | 54.7 µM (inactive) | > 100 µM (inactive) | > 100 µM (inactive) | > 100 µM (inactive) | 42.6 µM (inactive) | > 100 µM (inactive) | 32.8 µM (inactive) | > 100 µM (inactive) | > 100 µM (inactive) | > 100 µM (inactive) | > 100 µM (inactive) | > 100 µM (inactive) | 92.5 | > 100 µM (inactive) | –
COC(=O)CC[N+]1([O-])CC1 | > 100 µM (inactive) | > 100 µM (inactive) | > 100 µM (inactive) | – | > 100 µM (inactive) | > 100 µM (inactive) | > 100 µM (inactive) | – | > 100 µM (inactive) | > 100 µM (inactive) | > 100 µM (inactive) | > 100 µM (inactive) | – | > 100 µM (inactive) | > 100 µM (inactive) | > 100 µM (inactive) | > 100 µM (inactive) | > 100 | > 100 µM (inactive) | > 100 µM (inactive)
